ChEMBL document CHEMBL5649167, “The SUV4-20 inhibitor A-196 verifies a role for epigenetics in genomic integrity” (Nat Chem Biol, 2017)
pIC50, pKi: −log10 of the molar value.

What was measured:
Adenosine receptor A2a = Adenosine receptor A2a (Homo sapiens, UniProt P29274); assay: Inhibition of human Adenosine receptor A2a assessed as inhibition constant
[1] = biological target: Histone-lysine N-methyltransferase KMT5B (Homo sapiens, UniProt Q4FZB7); assay: Inhibition of recombinant human 6His-(Tev)-G-SUV420H1 (69 to 335 residues) using Biotin-tagged H4K20me1 and [3H-SAM] as substrate incubated for 2 hrs by scintillation proximity assay
[2] = biological target: Histone-lysine N-methyltransferase KMT5C (Homo sapiens, UniProt Q86Y97); assay: Inhibition of human SUV420H2 using Biotin-tagged H4K20me1 and [3H-SAM] as substrate incubated for 2 hrs by scintillation proximity assay
[3] = biological target: T1, 5-hydroxytryptamine receptor 2A (Homo sapiens, UniProt P28223); assay: Inhibition of human 5-HT2A receptor expressed in HEK293T cells assessed as inhibition constant; assay type: cell-based
[4] = biological target: KV channel (voltage-gated potassium channel) (Homo sapiens, UniProt O43525+O43526+O95259+P16389+P17658+P22001+P22459+P22460+P48547+P51787+P56696+Q03721+Q09470+Q12809+Q14003+Q14721+Q16322+Q6PIU1+Q8NCM2+Q8TAE7+Q8TDN1+Q8TDN2+Q92953+Q96KK3+Q96L42+Q96PR1+Q96RP8+Q9BQ31+Q9H252+Q9H3M0+Q9NR82+Q9NS40+Q9NSA2+Q9NZV8+Q9UIX4+Q9UJ96+Q9UK17+Q9ULD8+Q9ULS6+Q9UQ05); assay: Inhibition of human KV channel at 10 uM relative to control; assay type: protein assay
[5] = biological target: L-type calcium channel (verapamil binding site) (Homo sapiens, UniProt O60840+Q01668+Q13698+Q13936); assay: Inhibition of human L-type calcium channel verapamil binding site at 10 uM relative to control; assay type: protein assay
B-cell [6] = assay: Induction of DNA repair in mouse B cells assessed as change in ability of splenic cells to switch from IgM to IgE at 10 uM incubated for 3 days in the presence of LPS plus IL-4 by flow cytometry analysis (Rvb=1.97%); assay type: functional; details: time 3 day
[7] = biological target: T2, 5-hydroxytryptamine receptor 1A (Homo sapiens, UniProt P08908); assay: Inhibition of human 5-HT1A assessed as inhibition constant
T2 sequence (P08908 whole entry): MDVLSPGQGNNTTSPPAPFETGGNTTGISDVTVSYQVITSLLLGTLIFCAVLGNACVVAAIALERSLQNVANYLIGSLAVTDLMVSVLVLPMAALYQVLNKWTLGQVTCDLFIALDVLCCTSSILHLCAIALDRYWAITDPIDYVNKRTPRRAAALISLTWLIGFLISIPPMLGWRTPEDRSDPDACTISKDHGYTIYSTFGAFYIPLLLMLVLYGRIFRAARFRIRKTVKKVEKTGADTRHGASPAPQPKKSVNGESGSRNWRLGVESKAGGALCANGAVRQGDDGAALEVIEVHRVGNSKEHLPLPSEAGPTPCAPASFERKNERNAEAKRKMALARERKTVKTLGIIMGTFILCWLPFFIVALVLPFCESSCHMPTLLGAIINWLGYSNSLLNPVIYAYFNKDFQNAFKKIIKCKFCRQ

Adenosine receptor A3 = biological target: T3, Adenosine receptor A3 (Homo sapiens, UniProt P0DMS8); assay: Inhibition of human Adenosine receptor A3 assessed as inhibition constant
T3 sequence (P0DMS8 whole entry): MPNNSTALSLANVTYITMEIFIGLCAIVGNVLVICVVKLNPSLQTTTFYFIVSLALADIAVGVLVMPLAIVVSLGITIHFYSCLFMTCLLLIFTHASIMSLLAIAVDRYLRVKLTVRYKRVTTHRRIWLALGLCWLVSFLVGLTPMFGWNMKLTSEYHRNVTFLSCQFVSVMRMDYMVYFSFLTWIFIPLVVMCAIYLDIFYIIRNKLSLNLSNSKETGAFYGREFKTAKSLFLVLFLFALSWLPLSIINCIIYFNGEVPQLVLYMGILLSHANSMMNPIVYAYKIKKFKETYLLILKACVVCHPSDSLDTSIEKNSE

B-cell [8] = assay: Induction of DNA repair in mouse B cells assessed as change in ability of splenic cells to switch from IgM to IgG1 incubated for 2 days at 1 uM in the presence of LPS by flow cytometry analysis (Rvb=9.59%); assay type: functional; details: time 2 day
[9] = biological target: Sodium-dependent serotonin transporter (Homo sapiens, UniProt P31645); assay: Inhibition of human 5-HT transporter assessed as inhibition constant
B-cell [10] = assay: Induction of DNA repair in mouse B cells assessed as change in ability of splenic cells to switch from IgM to IgG1 at 10 uM incubated for 2 days in the presence of LPS by flow cytometry analysis (Rvb=9.59%); assay type: functional; details: time 2 day
B-cell [11] = assay: Induction of DNA repair in mouse B cells assessed as change in ability of splenic cells to switch from IgM to IgG3 at 1 uM incubated for 4 days in the presence of LPS by flow cytometry analysis (Rvb=5.71%); assay type: functional; details: time 4 day
[12] = biological target: Kappa-type opioid receptor (Homo sapiens, UniProt P41145); assay: Inhibition of human kappa opioid receptor expressed in stable HEK cells assessed as inhibition constant; assay type: cell-based
[13] = biological target: T1, 5-hydroxytryptamine receptor 2A; assay: Inhibition of human 5-HT2A assessed as inhibition constant
[14] = Inhibition of human 5-HT3 receptor expressed in HEK293T cells at 10 uM relative to control; details: HEK-293T
B-cell [15] = assay: Induction of DNA repair in mouse B cells assessed as change in ability of splenic cells to switch from IgM to IgE at 1 uM incubated for 3 days in the presence of LPS plus IL-4 by flow cytometry analysis (Rvb=1.97%); assay type: functional; details: time 3 day
Adenosine receptor A1 = biological target: T4, Adenosine receptor A1 (Homo sapiens, UniProt P30542); assay: Inhibition of human Adenosine receptor A1 assessed as inhibition constant
T4 sequence (P30542 whole entry): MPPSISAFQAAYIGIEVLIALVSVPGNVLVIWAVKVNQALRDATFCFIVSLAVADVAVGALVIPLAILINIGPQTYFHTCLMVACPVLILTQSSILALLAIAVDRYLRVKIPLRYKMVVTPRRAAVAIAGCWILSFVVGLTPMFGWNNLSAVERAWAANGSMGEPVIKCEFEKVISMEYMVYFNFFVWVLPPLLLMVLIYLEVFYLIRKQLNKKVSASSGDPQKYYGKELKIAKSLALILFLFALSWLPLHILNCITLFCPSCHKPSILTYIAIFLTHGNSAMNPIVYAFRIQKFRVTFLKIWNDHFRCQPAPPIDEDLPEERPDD

[16] = Inhibition of Rat GABAA assessed as inhibition constant in the presence of PBR
B-cell [17] = assay: Induction of DNA repair in mouse B cells assessed as change in ability of splenic cells to switch from IgM to IgG3 at 10 uM incubated for 4 days in the presence of LPS by flow cytometry analysis (Rvb=5.71%); assay type: functional; details: time 4 day

Histone-lysine N-methyltransferase KMT5C, sequence (Q86Y97 whole entry): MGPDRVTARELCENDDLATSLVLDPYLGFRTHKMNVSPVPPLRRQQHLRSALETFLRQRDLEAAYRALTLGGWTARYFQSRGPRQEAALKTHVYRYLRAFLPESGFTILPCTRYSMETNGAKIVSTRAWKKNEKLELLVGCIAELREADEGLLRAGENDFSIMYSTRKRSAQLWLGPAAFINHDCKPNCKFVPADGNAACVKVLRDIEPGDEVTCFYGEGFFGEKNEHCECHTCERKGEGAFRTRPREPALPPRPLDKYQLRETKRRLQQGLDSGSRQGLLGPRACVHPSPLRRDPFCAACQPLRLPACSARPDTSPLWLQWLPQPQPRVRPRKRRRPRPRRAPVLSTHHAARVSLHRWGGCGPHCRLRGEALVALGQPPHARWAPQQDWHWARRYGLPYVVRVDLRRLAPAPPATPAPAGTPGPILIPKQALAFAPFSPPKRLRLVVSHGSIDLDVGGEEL
T1 sequence (P28223 whole entry): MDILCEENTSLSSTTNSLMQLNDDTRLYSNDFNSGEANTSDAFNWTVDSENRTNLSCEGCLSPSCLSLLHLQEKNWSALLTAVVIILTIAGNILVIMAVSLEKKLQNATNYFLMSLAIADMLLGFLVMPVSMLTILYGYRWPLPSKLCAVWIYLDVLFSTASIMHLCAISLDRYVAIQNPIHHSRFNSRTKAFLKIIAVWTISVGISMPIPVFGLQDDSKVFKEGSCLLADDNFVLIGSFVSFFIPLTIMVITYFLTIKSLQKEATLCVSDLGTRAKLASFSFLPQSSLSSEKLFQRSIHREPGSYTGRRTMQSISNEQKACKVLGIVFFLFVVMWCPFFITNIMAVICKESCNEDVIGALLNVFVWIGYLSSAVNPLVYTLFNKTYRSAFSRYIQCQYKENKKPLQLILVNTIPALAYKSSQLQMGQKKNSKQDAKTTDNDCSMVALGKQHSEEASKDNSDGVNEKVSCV
Histone-lysine N-methyltransferase KMT5B, sequence (Q4FZB7 whole entry, the tested form may be a part): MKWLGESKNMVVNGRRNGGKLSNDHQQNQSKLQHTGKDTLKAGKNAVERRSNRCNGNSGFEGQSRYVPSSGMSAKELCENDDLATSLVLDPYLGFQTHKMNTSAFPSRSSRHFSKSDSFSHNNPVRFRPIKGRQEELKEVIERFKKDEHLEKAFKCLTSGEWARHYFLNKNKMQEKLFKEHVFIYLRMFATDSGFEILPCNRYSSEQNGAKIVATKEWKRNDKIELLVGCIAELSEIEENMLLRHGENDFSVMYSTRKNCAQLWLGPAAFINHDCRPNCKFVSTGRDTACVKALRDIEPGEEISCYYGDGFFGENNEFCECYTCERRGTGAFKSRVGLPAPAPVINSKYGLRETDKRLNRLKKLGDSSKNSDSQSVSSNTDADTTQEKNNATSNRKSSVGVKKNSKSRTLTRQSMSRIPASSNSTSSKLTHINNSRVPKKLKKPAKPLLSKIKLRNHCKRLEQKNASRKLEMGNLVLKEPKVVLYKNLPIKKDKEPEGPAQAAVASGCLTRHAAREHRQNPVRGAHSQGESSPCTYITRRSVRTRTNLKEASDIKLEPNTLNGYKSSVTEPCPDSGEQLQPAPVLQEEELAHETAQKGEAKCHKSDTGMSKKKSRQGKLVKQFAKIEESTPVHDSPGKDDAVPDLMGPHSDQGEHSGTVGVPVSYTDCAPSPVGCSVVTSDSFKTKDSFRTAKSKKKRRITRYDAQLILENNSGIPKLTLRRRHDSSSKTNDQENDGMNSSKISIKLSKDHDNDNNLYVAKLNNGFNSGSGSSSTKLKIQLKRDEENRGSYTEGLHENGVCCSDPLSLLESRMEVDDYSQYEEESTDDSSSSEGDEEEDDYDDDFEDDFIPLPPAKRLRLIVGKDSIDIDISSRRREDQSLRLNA
Sodium-dependent serotonin transporter, sequence (P31645 whole entry): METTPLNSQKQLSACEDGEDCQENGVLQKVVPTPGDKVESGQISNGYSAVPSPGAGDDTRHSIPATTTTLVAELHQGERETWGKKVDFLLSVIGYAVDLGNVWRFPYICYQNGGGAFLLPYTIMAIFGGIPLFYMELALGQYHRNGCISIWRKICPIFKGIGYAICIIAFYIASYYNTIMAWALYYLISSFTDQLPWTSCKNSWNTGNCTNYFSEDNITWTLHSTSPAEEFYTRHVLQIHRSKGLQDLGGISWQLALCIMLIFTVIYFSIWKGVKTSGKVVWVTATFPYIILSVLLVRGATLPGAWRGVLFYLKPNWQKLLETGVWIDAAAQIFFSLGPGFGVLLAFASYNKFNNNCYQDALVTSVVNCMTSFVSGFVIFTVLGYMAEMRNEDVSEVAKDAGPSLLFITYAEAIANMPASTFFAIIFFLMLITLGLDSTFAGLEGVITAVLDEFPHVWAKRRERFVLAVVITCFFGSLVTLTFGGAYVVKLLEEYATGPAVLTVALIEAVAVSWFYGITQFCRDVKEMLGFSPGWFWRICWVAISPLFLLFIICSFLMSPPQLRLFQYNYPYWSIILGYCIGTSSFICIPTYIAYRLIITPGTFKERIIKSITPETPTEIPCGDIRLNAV
Adenosine receptor A2a, sequence (P29274 whole entry, the tested form may be a part): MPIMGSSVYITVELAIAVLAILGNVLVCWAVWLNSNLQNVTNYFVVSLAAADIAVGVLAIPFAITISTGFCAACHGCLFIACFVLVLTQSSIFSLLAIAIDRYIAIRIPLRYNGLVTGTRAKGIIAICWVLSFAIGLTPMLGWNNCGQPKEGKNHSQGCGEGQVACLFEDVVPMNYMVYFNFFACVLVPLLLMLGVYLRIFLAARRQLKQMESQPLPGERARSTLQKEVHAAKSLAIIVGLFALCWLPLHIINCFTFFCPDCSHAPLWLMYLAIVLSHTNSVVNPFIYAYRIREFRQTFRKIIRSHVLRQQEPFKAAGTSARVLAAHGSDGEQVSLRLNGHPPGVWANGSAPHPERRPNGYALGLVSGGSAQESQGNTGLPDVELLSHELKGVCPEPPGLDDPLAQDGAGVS
Kappa-type opioid receptor, sequence (P41145 whole entry): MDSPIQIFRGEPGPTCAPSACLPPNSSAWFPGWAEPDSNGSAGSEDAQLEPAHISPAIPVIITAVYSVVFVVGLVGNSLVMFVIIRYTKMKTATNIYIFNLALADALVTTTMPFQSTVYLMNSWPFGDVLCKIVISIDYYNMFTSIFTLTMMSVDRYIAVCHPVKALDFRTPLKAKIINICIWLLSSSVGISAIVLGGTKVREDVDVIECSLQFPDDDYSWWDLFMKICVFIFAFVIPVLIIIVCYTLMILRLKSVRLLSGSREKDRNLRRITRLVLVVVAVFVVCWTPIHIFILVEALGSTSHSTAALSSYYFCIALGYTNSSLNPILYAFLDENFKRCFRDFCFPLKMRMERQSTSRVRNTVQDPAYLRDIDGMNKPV

pKi (Adenosine receptor A2a)	pIC50 [1]	pIC50 [2]	pKi [3]	inhibition at 10 µM [4]	inhibition at 10 µM [5]	pKi [7]	pKi (Adenosine receptor A3)	pKi [9]	pKi [12]	pKi [13]	pKi (Adenosine receptor A1)	pKi [16]	Structure (SMILES)	Activity (B-cell [6])	Activity (B-cell [8])	Activity (B-cell [10])	Activity (B-cell [11])	inhibition at 10 µM [14]	Activity (B-cell [15])	Activity (B-cell [17])
4.70	< 5.00	< 5.00	< 5.00	-5%	4%	< 5.00	4.89	5.41	5.57	4.89	5.51	5.96	O=C(c1nnc(NC2CCCC2)c2cc(Cl)c(Cl)cc12)N1CCC(O)CC1	1.94%	10.7%	10.6%	5.55%	-5%	2.45%	5.11%
	6.23	5.92											Clc1cc2nccc(NC3CCCC3)c2cc1Cl							
